Assay [1] deals with release of mature IL-1β from human monocytes. The experiment in a line: Human monocyte pulse chase assay, inhibition of release of mature IL-1β (called "in vivo"). It is filed as cell-based. The settings on record: freshly isolated human monocytes activated with fixed S. aureus, 2-3 donors, values approximate. How it is done:
In vivo inhibition (IC50) was determined based on Miller et al., “Inhibition of Mature IL-1β Production in Murine Macrophages and a Murine Model of Inflammation By WIN 67694, An Inhibitor of IL-1β Converting Enzyme, J. Immunol., 1994, 154, 1331, as follows:
Human monocytes were isolated from heparinized leukopheresis units obtained through Biological Specialty Corporation (Lansdale, Pa.). Monocytes were purified by Ficoll-Hupaque (Pharmacia Fine Chemicals, Piscataway, N.J.) gradient centrifugation and more than 95% pure monocyte populations obtained by centrifugal elutriation. The assay was performed on duplicate samples of freshly isolated human monocytes, cultured in suspension at 37° C. and rotated gently in conical bottom polypropylene tubes (Sardstedt Inc., Princeton, N.J.). Human monocytes at a concentration of 5×10^6 cells/mL were resuspended in 1 mL of RPMI 1640 (a common tissue buffer from M.A. Bioproducts, Walkersville, Md.) containing 1% fetal calf serum (FCS) (HyClone, Logan, Utah) and 50 μg/mL gentamycin (Gibco, Grand Island, N.Y.). The cells were treated either with a compound of the invention (i.e. test compound) or with a non-inhibitor (control compound, typically 0.03% DMSO) for 15 minutes and then activated with 0.01% fixed Staphylococcus aureus (The Enzyme Center, Malden, Mass.) for 1 hour. The cells were then centrifuged and resuspended in 1 mL of cysteine, methionine-free RPMI media containing 1% dialyzed FCS (Hyclone). The cells were pretreated with a test compound or control compound for 15 minutes after which 0.01% fixed S. aureus plus 100 μCi Tran 35-S label (ICN, Irvine, Calif.) was added and the cells incubated at 37° C. for 1 hour. After incubation, […]. The cells were again pretreated with a test or control compound for 15 minutes and then 0.01% S. aureus for 2 hours. […]
In the monocyte pulse chase assay, each test parameter was run in duplicate. […] When test compounds were evaluated, the percent inhibition of release of mature IL-β was calculated as follows: […]

Assay [2] concerns the target T1, elastase (Homo sapiens, UniProt P08246).
T1 sequence (P08246 30-267): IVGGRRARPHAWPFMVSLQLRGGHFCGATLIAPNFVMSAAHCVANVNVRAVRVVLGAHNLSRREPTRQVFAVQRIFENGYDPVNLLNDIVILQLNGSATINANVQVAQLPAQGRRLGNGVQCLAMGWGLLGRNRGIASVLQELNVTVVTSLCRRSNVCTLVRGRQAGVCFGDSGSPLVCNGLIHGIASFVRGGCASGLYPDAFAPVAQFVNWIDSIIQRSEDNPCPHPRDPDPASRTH
The experiment in a line: Elastase inhibition (in vitro). It is filed as biochemical. The settings on record: in vitro assay per Cha; did not inhibit elastase. From the text: It should be noted that the pyrimidine-based trifluoromethyl ketones (FIG. 2) were recently described as inhibitors of the serene protease, elastase. Since ICE is a cysteine protease and it is known in the prior art that trifluoromethyl ketones are rather poor inhibitors of cysteine proteases (See, Imperialia, B. and Ables, R. H., Biochemistly (1986), 2, 3760-7), it is expected that the pyrimidines of FIG. 2 would not be inhibitors of ICE. Also, it is known that ICE requires the aspartic acid side chain (—CH2COOH) at PI. Pyrimidines which inhibit elastase (FIG. 2) contain the valine side chain (—CHMe2).
Compounds of examples 1, 6 and 7 were examined for their ability to inhibit elastase. The in vitro assay was carried out as described by Cha, Biochem. Pharmacol., (1975), 24, 2177-2185.

By IC50 is commonly meant the concentration at which inhibition is half-maximal.

Some results are limits rather than exact numbers.

In the case of `O=C(O)C[C@H](NC(=O)Cn1c(-c2ccc(F)cc2)ncc(NC(=O)OCc2ccccc2)c1=O)C(=O)COc1cc(C(F)(F)F)nn1-c1ccccc1` [Example 6, N-[2-(5-Benzyloxycarbonylamino-6-oxo-2-(4-fluorophenyl)-1,6-dihydro-1-pyrimidinyl)acetoyl]-L-aspartic Acid 5-(1-phenyl-3-trifluoromethyl)pyrazoloxymethyl Ketone], the IC50 in assay [1] is 0.1 to 10 µM; in assay [2], at least 10 µM.

`CC(C)OC(=O)Nc1cnc(-c2ccccc2)n(CC(=O)N[C@@H](CC(=O)O)C(=O)COc2cc(C(F)(F)F)nn2-c2ccccc2)c1=O` [Example 7, N-[2-(5-Isopropyloxycarbonylamino-6-oxo-2-phenyl-1,6-dihydro-1-pyrimidinyl)acetoyl]-L-aspartic Acid 5-(1-phenyl-3-trifluoromethyl)pyrazoloxymethyl Ketone]: the values for the IC50 in assay [1] and in assay [2] were 0.1 to 10 µM and at least 10 µM, respectively.

On to `O=C(O)C[C@H](NC(=O)Cn1c(-c2ccc(F)cc2)ncc(NC(=O)OCc2ccccc2)c1=O)C(=O)COC(=O)c1c(Cl)cccc1Cl` [Example 1], for which the 50% inhibitory concentration (IC50) is 0.1 to 10 µM in assay [1] and at least 10 µM in assay [2].

(Values after US6407080B2, “N-(pyrimidinyl)-aspartic acid analogs as interleukin-1β converting enzyme inhibitors” (Vertex Pharmaceuticals Incorporated, priority 1994, dated 2002).)
